In patent US10927418B2, “Assays and methods for selecting a treatment regimen for a subject with leukemia” (CELATOR PHARMACEUTICALS, INC., priority 2015, dated 2021):

Test system: ME-1 and MOLM-14 cells
Experiment: CPX-351 uptake after quizartinib pretreatment
Assay type: cell-based
Experimental: Uptake of CPX-351 was measured by daunorubicin fluorescence as determined by flow cytometry normalized to untreated control. The x-axis in the graphs depicts the uptake of CPX-351 in standard units of fluorescence and the y-axis represents the normalized cell counts. […] It is clear from FIGS. 9A and 9B that as the pretreatment time is extended, the ability of some of the cells to take up CPX-351 is diminished. The results in FIGS. 9C and 9D are composites of the various timepoints up to 24 hours.

Compound: CC(C)(C)c1cc(NC(=O)Nc2ccc(-c3cn4c(n3)sc3cc(OCCN5CCOCC5)ccc34)cc2)no1 [quizartinib]
- ability of cells to take up CPX-351 as quizartinib pretreatment time is extended (10 nM quizartinib for 0, 2, 8, 16 and 24 hours, then CPX-351 for 2 hours): diminished
- total population of cells exhibiting decreased daunorubicin fluorescence (pretreatment with quizartinib for 16 hours): approximately 50%
